Data published in patent US6921840B1 (The Trustees of the University of Pennsylvania, priority 1999, dated 2005).
Several values for one entry are separate records, joined by “and”; a condition that tells them apart may be missing. Equal entries are not always repeated. Where two headings read alike, the source gives them in different places.

Tests used:
[1] = Biodistribution in rats after i.v. injection of radioactive tracer; format: in vivo, rat
Method: Three or four rats per group were used for each biodistribution study. While under ether anesthesia, 0.2 ml of a saline solution containing 10 μCi of radioactive tracer was injected into the femoral vein. The rats were sacrificed at the time indicated by cardiac excision while under ether anesthesia. Organs of interest were removed and weighed, and the radioactivity was counted using a Packard automatic gamma counter (Model 5000). The percent dose per organ was calculated by a comparison of the tissue counts to counts of 1% of the initial dose (100 times diluted aliquots of the injected material) measured at the same time.
Regional brain distribution in rats was measured after an i.v. injection of the radioactive tracer. Samples from different brain regions [cortex (CX), striatum (ST), hippocampus (HP), cerebellum (CB) and hypothalamus (HY)] were dissected, weighed and counted. The percentage dose/g of each sample was calculated by comparing sample counts with the counts of the diluted initial dose described above. The ratio of specific binding (SB) in each region was obtained by dividing the difference of each region from the cerebellum (percentage dose/g) with that of the cerebellum [(region-CB)/CB].

[2] = Partition coefficient octanol/buffer; format: physicochemical; conditions: n-octanol and phosphate buffer, pH 7.4
[3] = Metabolite analysis of brain tissue; format: in vivo, rat; conditions: rats, 60 min post-injection
Method: Sixty minutes after an i.v. injection of 200-300 μCi of [^125I]IDAM into two male rats, the areas corresponding to the hypothalamus region were dissected individually. The tissues were then homogenized in 1.5 ml of 50 mM Tris buffer (pH 7.4) and the homogenates were extracted with ethyl acetate (3×1.5 ml) in the presence of the non-radioactive IDAM (100 μg). The extracted ethyl acetate layers were evaporated to near dryness and the purity of [^125I]IDAM in the condensed extracts was analyzed by HPLC (PRP-1 column; solvent: CH3CN/DMGA: 90/10; flow rate: 1 ml/min). Control samples were performed by adding 5-10 μCi of [^125I]IDAM to hypothalamus tissues followed by the same procedures used for the experimental samples to determine the extraction efficiency.

[4] = In vitro stability of radioiodinated ligand; format: physicochemical; conditions: in 50% ethanol for up to two months after radioiodination
SERT [5] = molecular target: T1, SERT (Rattus norvegicus, UniProt P31652)
T1 sequence (P31652 whole entry): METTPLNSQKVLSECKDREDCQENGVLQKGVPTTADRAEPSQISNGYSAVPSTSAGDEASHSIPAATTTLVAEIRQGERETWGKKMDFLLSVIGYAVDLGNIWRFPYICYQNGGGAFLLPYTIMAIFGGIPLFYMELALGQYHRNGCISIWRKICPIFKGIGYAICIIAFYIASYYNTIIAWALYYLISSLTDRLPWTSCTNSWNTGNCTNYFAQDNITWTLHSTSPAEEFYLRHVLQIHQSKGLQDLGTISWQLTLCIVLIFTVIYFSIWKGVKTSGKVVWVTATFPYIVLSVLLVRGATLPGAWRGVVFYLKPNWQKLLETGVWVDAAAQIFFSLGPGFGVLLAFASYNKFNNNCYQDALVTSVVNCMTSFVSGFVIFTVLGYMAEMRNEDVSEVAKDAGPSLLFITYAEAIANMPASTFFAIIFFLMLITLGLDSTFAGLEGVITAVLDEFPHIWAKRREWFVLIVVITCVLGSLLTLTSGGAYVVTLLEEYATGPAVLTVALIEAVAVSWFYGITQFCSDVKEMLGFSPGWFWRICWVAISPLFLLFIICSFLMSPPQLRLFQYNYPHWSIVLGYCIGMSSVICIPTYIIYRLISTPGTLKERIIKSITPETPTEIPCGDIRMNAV
Method: At 60 min post i.v. injection, the animals were sacrificed by cardiac excision while under ether anesthesia. The brains were rapidly removed, placed in embedding medium (Tissue Tek, Miles Laboratory, Elkhart, Ind.) and frozen with powdered dry ice. After reaching equilibrium at −20° C. consecutive 20 μm coronal sections were cut on a cryostat microtome (Hacker Instruments, Fairfield, N.J.) thaw-mounted on microscope slides, and air-dried at room temperature. […] The microscale standards were calibrated with tissue mash standards for the value conversion to nCi/mg protein. The exposed film was developed by a Kodak automatic film processor. […] The brain sections of the pretreated rats were processed following the same procedures described above for the normal untreated rats.

SERT [6] = molecular target: T1, SERT; experiment: [125I]IDAM saturation binding to rat frontal cortical membrane homogenates; parameters: The frontal cortex of rat brain were dissected and homogenized in 30 volumes of buffer; from tissue; host or cells: rat frontal cortex membrane homogenates (male Sprague-Dawley rats, control and PCA-lesioned)
Method: The homogenates were centrifuged at 20,000 g for 20 min. The resulting pellets were then re-suspended and recentrifuged. The final pellets were suspended in the same buffer and used for in vitro binding assays.
Binding assays were performed in glass tubes (12×75 mm) with a final volume of 0.5 ml.
Various inhibitors were serially diluted with the buffer containing 0.1% BSA to overcome the stickiness and loss due to dilution. […] Incubation was carried out for 60 min at room temperature and then terminated by separation of bound from free radioligand by filtration through glass fiber filters (Schleicher & Schuell No. 25, Keene, N.H.) presoaked with 1% polyethylenimine. The filters were then washed three times with 3 ml of ice-cold […] Tris buffer and counted in a gamma counter (Packard 5000) with 70% efficiency. To study the effect of […], the homogenates were prepared in a sodium-free 50 mM Tris-HCl/5 mM KCl buffer.
Ten rats were divided into two-groups, and they were injected daily with PCA (8 mg/kg, i.p.) or saline for 3 consecutive days, respectively. The animals were sacrificed 5 days after the last injection and the frontal cortical membrane homogenates were prepared.

[7] = PCA-lesioned rats, frontal cortical membranes
[8] = control rats, frontal cortical membranes

CN(C)Cc1ccccc1Sc1ccc([125I])cc1CO [[^125I]IDAM]
half-time of clearance from the brain regions [1]: less than 60 min
% dose/g CEREBELLUM ([1]; 2 min): 1.377 ± 0.479 % dose/g
% dose/g CORTEX ([1]; 2 min): 2.353 ± 0.444 % dose/g
% dose/g HIPPOCAMPUS ([1]; 2 min): 1.485 ± 0.263 % dose/g
% dose/g HYPOTHALAMUS ([1]; 2 min): 1.782 ± 0.412 % dose/g
% dose/g STRIATUM ([1]; 2 min): 1.377 ± 0.344 % dose/g
% dose/organ BLOOD ([1]; 2 min): 7.619 ± 0.41 % dose/organ
% dose/organ BRAIN ([1]; 2 min): 2.44 % dose/organ and 2.44 ± 0.34 % dose/organ
% dose/organ HEART ([1]; 2 min): 1.303 ± 0.10 % dose/organ
% dose/organ KIDNEY ([1]; 2 min): 6.54 ± 0.26 % dose/organ
% dose/organ LIVER ([1]; 2 min): 6.46 ± 1.18 % dose/organ
% dose/organ LUNG ([1]; 2 min): 10.42 ± 1.36 % dose/organ
% dose/organ MUSCLE ([1]; 2 min): 19.06 ± 8.51 % dose/organ
% dose/organ SKIN ([1]; 2 min): 3.27 ± 0.48 % dose/organ
% dose/organ SPLEEN ([1]; 2 min): 0.31 ± 0.08 % dose/organ
SB: specific binding = (region-CB)/CB, CORTEX ([1]; 2 min): 0.709
SB: specific binding = (region-CB)/CB, HIPPOCAMPUS ([1]; 2 min): 0.079
SB: specific binding = (region-CB)/CB, HYPOTHALAMUS ([1]; 2 min): 0.294
SB: specific binding = (region-CB)/CB, STRIATUM ([1]; 2 min): 0.000
total radioactivity recovered from the major organs ([1]; 2 min post-injection): less than 60 % of total injected dose
% dose/g CEREBELLUM ([1]; 30 min): 0.416 ± 0.045 % dose/g
% dose/g CORTEX ([1]; 30 min): 0.820 ± .0108 % dose/g
% dose/g HIPPOCAMPUS ([1]; 30 min): 0.832 ± 0.048 % dose/g
% dose/g HYPOTHALAMUS ([1]; 30 min): 0.918 ± 0.113 % dose/g
% dose/g STRIATUM ([1]; 30 min): 0.875 ± 0.086 % dose/g
% dose/organ BLOOD ([1]; 30 min): 7.63 ± 1.03 % dose/organ
% dose/organ BRAIN ([1]; 30 min): 1.174 ± 0.062 % dose/organ
% dose/organ HEART ([1]; 30 min): 0.27 ± 0.02 % dose/organ
% dose/organ KIDNEY ([1]; 30 min): 3.48 ± 0.643 % dose/organ
% dose/organ LIVER ([1]; 30 min): 4.709 ± 0.347 % dose/organ
% dose/organ LUNG ([1]; 30 min): 1.78 ± 0.08 % dose/organ
% dose/organ MUSCLE ([1]; 30 min): 16.27 ± 0.82 % dose/organ
% dose/organ SKIN ([1]; 30 min): 6.121 ± 0.536 % dose/organ
% dose/organ SPLEEN ([1]; 30 min): 0.279 ± 0.026 % dose/organ
SB: specific binding = (region-CB)/CB, CORTEX ([1]; 30 min): 0.972
SB: specific binding = (region-CB)/CB, HIPPOCAMPUS ([1]; 30 min): 1.002
SB: specific binding = (region-CB)/CB, HYPOTHALAMUS ([1]; 30 min): 1.208
SB: specific binding = (region-CB)/CB, STRIATUM ([1]; 30 min): 1.104
% dose/g CEREBELLUM ([1]; 60 min): 0.153 ± 0.019 % dose/g
% dose/g CORTEX ([1]; 60 min): 0.310 ± 0.060 % dose/g
% dose/g HIPPOCAMPUS ([1]; 60 min): 0.355 ± 0.016 % dose/g
% dose/g HYPOTHALAMUS ([1]; 60 min): 0.422 ± 0.066 % dose/g
% dose/g STRIATUM ([1]; 60 min): 0.257 ± 0.042 % dose/g
% dose/organ BLOOD ([1]; 60 min): 6.380 ± 0.729 % dose/organ
% dose/organ BRAIN ([1]; 60 min): 0.50 % dose/organ and 0.503 ± 0.027 % dose/organ
% dose/organ HEART ([1]; 60 min): 0.187 ± 0.008 % dose/organ
% dose/organ KIDNEY ([1]; 60 min): 1.993 ± 0.351 % dose/organ
% dose/organ LIVER ([1]; 60 min): 4.120 ± 0.766 % dose/organ
% dose/organ LUNG ([1]; 60 min): 0.931 ± 0.086 % dose/organ
% dose/organ MUSCLE ([1]; 60 min): 6.775 ± 0.145 % dose/organ
% dose/organ SKIN ([1]; 60 min): 7.538 ± 0.127 % dose/organ
% dose/organ SPLEEN ([1]; 60 min): 0.167 ± 0.027 % dose/organ
SB: specific binding = (region-CB)/CB, CORTEX ([1]; 60 min): 1.024
SB: specific binding = (region-CB)/CB, HIPPOCAMPUS ([1]; 60 min): 1.313
SB: specific binding = (region-CB)/CB, HYPOTHALAMUS ([1]; 60 min): 1.75
SB: specific binding = (region-CB)/CB, STRIATUM ([1]; 60 min): 0.673
% dose/g CEREBELLUM ([1]; 120 min): 0.053 ± 0.005 % dose/g
% dose/g CORTEX ([1]; 120 min): 0.89 ± 0.018 % dose/g
% dose/g HIPPOCAMPUS ([1]; 120 min): 0.134 ± 0.011 % dose/g
% dose/g HYPOTHALAMUS ([1]; 120 min): 0.142 ± 0.027 % dose/g
% dose/g STRIATUM ([1]; 120 min): 0.105 ± 0.052 % dose/g
% dose/organ BLOOD ([1]; 120 min): 4.160 ± 0.150 % dose/organ
% dose/organ BRAIN ([1]; 120 min): 0.17 % dose/organ and 0.168 ± 0.029 % dose/organ
% dose/organ HEART ([1]; 120 min): 0.114 ± 0.023 % dose/organ
% dose/organ KIDNEY ([1]; 120 min): 0.832 ± 0.071 % dose/organ
% dose/organ LIVER ([1]; 120 min): 2.722 ± 0.308 % dose/organ
% dose/organ LUNG ([1]; 120 min): 0.422 ± 0.055 % dose/organ
% dose/organ MUSCLE ([1]; 120 min): 4.714 ± 0.977 % dose/organ
% dose/organ SKIN ([1]; 120 min): 6.716 ± 1.304 % dose/organ
% dose/organ SPLEEN ([1]; 120 min): 0.066 ± 0.008 % dose/organ
SB: specific binding = (region-CB)/CB, CORTEX ([1]; 120 min): 0.674
SB: specific binding = (region-CB)/CB, HIPPOCAMPUS ([1]; 120 min): 1.524
SB: specific binding = (region-CB)/CB, HYPOTHALAMUS ([1]; 120 min): 1.679
SB: specific binding = (region-CB)/CB, STRIATUM ([1]; 120 min): 0.967
% dose/g CEREBELLUM ([1]; 240 min): 0.012 ± 0.000 % dose/g
% dose/g CORTEX ([1]; 240 min): 0.017 ± 0.003 % dose/g
% dose/g HIPPOCAMPUS ([1]; 240 min): 0.020 ± 0.003 % dose/g
% dose/g HYPOTHALAMUS ([1]; 240 min): 0.022 ± 0.011 % dose/g
% dose/g STRIATUM ([1]; 240 min): 0.018 ± 0.002 % dose/g
% dose/organ BLOOD ([1]; 240 min): 2.246 ± 0.303 % dose/organ
% dose/organ BRAIN ([1]; 240 min): 0.033 ± 0.002 % dose/organ
% dose/organ HEART ([1]; 240 min): 0.048 ± 0.004 % dose/organ
% dose/organ KIDNEY ([1]; 240 min): 0.488 ± 0.065 % dose/organ
% dose/organ LIVER ([1]; 240 min): 1.469 ± 0.189 % dose/organ
% dose/organ LUNG ([1]; 240 min): 0.220 ± 0.018 % dose/organ
% dose/organ MUSCLE ([1]; 240 min): 2.818 ± 0.208 % dose/organ
% dose/organ SKIN ([1]; 240 min): 3.851 ± 0.073 % dose/organ
% dose/organ SPLEEN ([1]; 240 min): 0.024 ± 0.004 % dose/organ
SB: specific binding = (region-CB)/CB, CORTEX ([1]; 240 min): 0.475
SB: specific binding = (region-CB)/CB, HIPPOCAMPUS ([1]; 240 min): 0.705
SB: specific binding = (region-CB)/CB, HYPOTHALAMUS ([1]; 240 min): 0.865
SB: specific binding = (region-CB)/CB, STRIATUM ([1]; 240 min): 0.508
partition coefficient (PC) [2]: 473
logD ([2]; read-out: partition coefficient (PC) (converted)): 2.67
unmetabolized tracer recovered from hypothalamus region [3]: > 95%
stability: radiochemical purity determined by HPLC [4]: > 95%
nonspecific binding (non-paroxetine blockable) (SERT [5]; HP): more than 70%
percentage of specific binding (paroxetine blockable) (SERT [5]; hippocampal regions and several cortical regions): less than 30%
percentage of specific binding (paroxetine blockable) (SERT [5]; interperduncular nucleus, median raphe and dorsomedial hypothalamus): more than 95%
Bmax of [125I]IDAM binding (SERT [6]; [7]): 20±7 fmol/mg protein
Kd (SERT [6]; [7]): 0.05 ± 0.15 nM
Kd of [125I]IDAM binding (SERT [6]; [7]): no significant change
loss of [125I]IDAM binding to rat cortical membranes (SERT [6]; after destruction of serotonergic neurons by PCA): 90%
nonspecific binding (SERT [6]; at Kd value, rat frontal cortical membranes): < 5%
Bmax of [125I]IDAM binding (SERT [6]; [8]): 272±30 fmol/mg protein
Kd (SERT [6]; [8]): 0.25 nM and 0.2 nM
